Patent US10596185B2, “Flavonoid compositions and uses thereof” (INGREDIENTS BY NATURE, priority 2014, dated 2020)
In brackets after ≈: the same amount, converted by molar mass. Read-outs that look alike come from different tables or passages of the source. Marks after values point to notes of the source that are not given here.

Key:
[1] = Total ORACFN (sum over the five reactive species); format: biochemical; parameters: ORAC-FN: unit not given here; details: for ORAC-FN: Table 5 summary, total ORACFN, unit not given; for Compare quercetin (ORAC-FN): anti-oxidant activity relative to quercetin
Description: This example describes the anti-oxidant activity of the eriodictyol complex described in Table 1. Anti-oxidant activity was measured using an oxygen radical absorbance capacity assay for food and nutrition ([…]). The assay was performed using techniques known in the art, such as those disclosed in Ou, B. et al., J Agric and Food Chem, 2001, 49 (10): 4619-4626; Huang, D. et al., J Agric and Food Chem, 2002, 50 (7): 1815-1821; Ou, B. et al., J Agric and Food Chem, 2002, 50 (10): 2772-2777; Zhang, L. et al., Free Radic. Bio Med, 2007, 43 (suppl. 1): S17; Dubost, N.J. et al., Food Chem, 2007, 105 (2): 727-735; Zhang, L. et al., J Agric and Food Chem, 2009, 57(7): 2661-2667; and U.S. Pat. No. 7,132,296, the contents of all of which are incorporated herein by reference. The activity of the eriodictyol complex against peroxyl radicals, hydroxyl radicals, peroxynitrite, super oxide anion, and singlet oxygen was measured. The total […] was also measured.

NF-kB = assay: NF-kB-luciferase assay system in C2C12 cell line; format: cell-based; details: for Compare quercetin (EC50 NF-kB): NF-kB inhibitory activity relative to quercetin
Description: Activity of the complex was measured using a C2C12 cell line with a NF-kB-luciferase assay system (Affymetrix, Santa Clara, Calif.), and compared to a number of flavonoid controls.

IL-6 = IL-6 level in mice fed a high-fat diet; format: in vivo; details: for IL-6: high fat diet mice, mean ± standard deviation
Description: (§1) The effects of eriocitrin and eriodictyol on anti-inflammatory markers were determined in mice fed a high-fat diet and compared to negative control, untreated mice that were fed either a standard- or high-fat-diet. Eriocitrin and eriodictyol effects were also compared against ibuprofen- and hesperidin-treated, high-fat-diet-fed mice. The effects of these various treatments on the cytokines IL-6, IL-10, MCP-1, and TNF-alpha are shown below.

IL-10 = IL-10 level in mice fed a high-fat diet; format: in vivo; details: mean ± standard deviation
Description: as §1

MCP-1 = MCP-1 level in mice fed a high-fat diet; format: in vivo; details: for MCP-1: high fat diet mice, mean ± standard deviation
Description: as §1

TNF-alpha = TNF-alpha level in mice fed a high-fat diet; format: in vivo; details: mean ± standard deviation
Description: as §1

[2] = Clinical study of metabolic syndrome symptoms (fasting glucose, insulin, hs-CRP, lipid panel); format: in vivo; details: humans, after 30 days, ≥10 hour fast, versus placebo
Description: A clinical study is performed in which subjects undergo a one-week run-in period during which subject document baseline data. Subjects meeting the inclusion/exclusion criteria are enrolled in the study and sent a glucometer to determine their fasting blood glucose levels. Those meeting the study criteria are enrolled in the study.
The subjects fast for at least 10 hours, and their fasting glucose, fasting insulin, hs-CRP levels, and lipid panels (including LDL, HDL, and triglycerides) are measured. Following these baseline measurements, subjects consume (1) 50 mg-2 g/day eriocitrin; (2) 50 mg-2 g/day eriocitrin, 50-250 mg/day neoeriocitrin, 50-250 mg/day hesperidin; or (3) a placebo. After 30 days, the subjects' glucose, insulin, hs-CRP, and lipid panel measurements are taken after a ≥10 hour fast.

[3] = Mus musculus, C2C12, Table 5 summary, unit inferred, read-out: EC50 NF-kB
[4] = Mus musculus, NF-kB inhibition, C2C12 cell line, NF-kB-luciferase, read-out: EC50
[5] = high-fat-diet-fed mice, in words

Row | EC50 (NF-kB; [3]) [µg/mL] | EC50 (NF-kB; [4]) [µg/mL] | Compare quercetin (EC50 NF-kB) (NF-kB) | SMILES | ORAC-FN [1] | Compare quercetin (ORAC-FN) [1] | IL-6 (IL-6) | IL-10 (IL-10) | MCP-1 (MCP-1) | TNF-alpha (TNF-alpha) | also measured
1 | 71.4 (≈ 120 µM) | 71.4 (≈ 120 µM) | 0.35 | C[C@@H]1O[C@@H](OC[C@H]2O[C@@H](Oc3cc(O)c4c(c3)O[C@H](c3ccc(O)c(O)c3)CC4=O)[C@H](O)[C@@H](O)[C@@H]2O)[C@H](O)[C@H](O)[C@H]1O [Eriocitrin, eriodictyol 7-O-B-rutinoside] | 31355 | 0.475 | 3.1 ± 1.6^a | 4.0 ± 2.2 | 19.3 ± 11.1^a | 2.4 ± 0.6 | IL-6 levels in comparison to the negative controls (IL-6; [5]): significantly reduced; MCP-1 levels in comparison to the negative controls (MCP-1; [5]): significantly reduced; HDL levels [2]: increased; LDL levels [2]: reduced; glucose levels [2]: reduced; hs-CRP levels [2]: reduced; insulin levels [2]: reduced; total cholesterol levels [2]: reduced
2 | – | 31.5 (≈ 104 µM) | – | O=c1c(O)c(-c2ccc(O)c(O)c2)oc2cc(O)cc(O)c12 [Quercetin•2H2O] | – | – | – | – | – | – | –
3 | 32 (≈ 118 µM) | 32 (≈ 118 µM) | 0.78 | O=C1C[C@@H](c2ccc(O)cc2)Oc2cc(O)cc(O)c21 [Naringenin] | 59454 | 0.901 | – | – | – | – | –
4 | 381 (≈ 656 µM) | 381 (≈ 656 µM) | 0.07 | C[C@@H]1O[C@@H](O[C@H]2[C@H](Oc3cc(O)c4c(c3)O[C@H](c3ccc(O)cc3)CC4=O)O[C@H](CO)[C@@H](O)[C@@H]2O)[C@H](O)[C@H](O)[C@H]1O [Naringin] | 22389 | 0.339 | – | – | – | – | –
5 | 54.2 (≈ 179 µM) | 54.2 (≈ 179 µM) | 0.46 | COc1ccc([C@@H]2CC(=O)c3c(O)cc(O)cc3O2)cc1O [Hesperitin 95, Hesperitin] | 77875 | 1.180 | – | – | – | – | –

Continued, compound first:

Row | SMILES | EC50 (NF-kB; [3]) [µg/mL] | EC50 (NF-kB; [4]) [µg/mL] | Compare quercetin (EC50 NF-kB) (NF-kB) | ORAC-FN [1] | Compare quercetin (ORAC-FN) [1] | IL-6 (IL-6) | IL-10 (IL-10) | MCP-1 (MCP-1) | TNF-alpha (TNF-alpha) | also measured
6 | COc1ccc([C@@H]2CC(=O)c3c(O)cc(O[C@@H]4O[C@H](CO[C@@H]5O[C@@H](C)[C@H](O)[C@@H](O)[C@H]5O)[C@@H](O)[C@H](O)[C@H]4O)cc3O2)cc1O [Hesperidin] | – | – | – | – | – | 5.9 ± 4.6^a | 5.3 ± 2.4 | 27.6 ± 9.0^a | 2.7 ± 0.3 | –
7 | COc1ccc(-c2cc(=O)c3c(O)cc(O[C@@H]4O[C@H](CO[C@@H]5O[C@@H](C)[C@H](O)[C@@H](O)[C@H]5O)[C@@H](O)[C@H](O)[C@H]4O)cc3o2)cc1O [Diosmin] | 349 (≈ 573 µM) | 349 (≈ 573 µM) | 0.07 | 373 | 0.006 | – | – | – | – | –
8 | COc1ccc([C@@H]2CC(=O)c3c(O)cc(O[C@@H]4O[C@H](CO[C@@H]5O[C@@H](C)[C@H](O)[C@@H](O)[C@H]5O)[C@@H](O)[C@H](O)[C@H]4O)cc3O2)cc1O [Hesperidin 90, Hesperidin] | – | – | 0.09 | 6067 | 0.092 | – | – | – | – | EC50 (NF-kB; NF-kB inhibition, C2C12 cell line, NF-kB-luciferase): 275.70 µg/mL (≈ 452 µM); EC50 NF-kB (NF-kB; Table 5 summary, unit not given, in µg/mL): 275.70
9 | CC(C)Cc1ccc(C(C)C(=O)O)cc1 (stereo not drawn) [Ibuprofen] | – | – | – | – | – | 21.9 ± 18.1^a | 6.0 ± 4.5 | 43.4 ± 31.5^ab | 1.2 ± 2.4 | –
